The results in this text go back to paper PMC4165196, “Curcumin, a Natural Antioxidant, Acts as a Noncompetitive Inhibitor of Human RNase L in Presence of Its Cofactor 2-5A In Vitro” (BioMed Research International, 2014).

One may read the Kd as the concentration at which binding is half-saturated.

This experiment addresses T1, human RNase L (Homo sapiens, UniProt Q05823).
T1 construct: gene RNASEL; full-length (741 a.a.) recombinant human RNase L, GST-RNase L fusion protein
T1 sequence (Q05823 1-741): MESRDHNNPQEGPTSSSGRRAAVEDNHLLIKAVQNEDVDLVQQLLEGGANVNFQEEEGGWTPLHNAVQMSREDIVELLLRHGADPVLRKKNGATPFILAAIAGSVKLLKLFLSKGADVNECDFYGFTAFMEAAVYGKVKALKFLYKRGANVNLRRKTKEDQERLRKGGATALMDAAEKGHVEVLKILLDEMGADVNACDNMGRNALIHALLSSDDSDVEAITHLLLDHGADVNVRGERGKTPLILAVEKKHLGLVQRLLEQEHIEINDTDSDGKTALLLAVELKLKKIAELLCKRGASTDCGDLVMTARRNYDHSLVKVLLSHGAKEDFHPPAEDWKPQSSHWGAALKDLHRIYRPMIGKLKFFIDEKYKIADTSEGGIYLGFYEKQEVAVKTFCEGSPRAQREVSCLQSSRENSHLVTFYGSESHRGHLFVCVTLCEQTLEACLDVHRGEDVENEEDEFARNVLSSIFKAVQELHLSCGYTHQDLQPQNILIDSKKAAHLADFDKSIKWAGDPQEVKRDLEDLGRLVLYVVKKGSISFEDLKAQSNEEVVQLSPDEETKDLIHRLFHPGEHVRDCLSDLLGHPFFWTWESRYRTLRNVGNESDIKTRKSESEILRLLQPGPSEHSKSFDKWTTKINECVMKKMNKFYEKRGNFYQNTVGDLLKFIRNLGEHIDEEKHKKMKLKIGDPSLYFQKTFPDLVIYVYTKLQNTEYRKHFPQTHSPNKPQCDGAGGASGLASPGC
The experiment is described as follows: intrinsic fluorescence quenching titration (Hill fit); also noncompetitive inhibition of purified GST-RNase L RNA degradation with […]-5A, Ki […], biphasic dose response. The format is binding.

`COc1cc(/C=C/C(=O)CC(=O)/C=C/c2ccc(O)c(OC)c2)ccc1O` [curcumin, 1,7-bis-[4 hydroxy-3-methoxy]-1,6 heptadiene-3,5-dione] showed a Kd of 397 ± 18 nM.
